The text below walks through data of US5686426A, “Dicarboxymethylated glycolipid derivatives as cell adhesion inhibitors” (Bristol-Myers Squibb Company, priority 1994, dated 1997).

Structures are written as SMILES.

As usually defined, the IC50 is the concentration that inhibits the measured activity by half.

The test relates to HL-60 cells / activated platelets (P-selectin). Kind of test: HL-60 Platelet Cell Adhesion Assay. The test is classed as cell-based. To be noted: HL-60 cell adhesion to thrombin-activated human platelets. As to the method: HL-60 cells, obtained from American Type Culture Collection, were cultured in RPMI 1640 medium (GIBCO) supplemented with 20% fetal calf serum (Sigma) and 50 μg/ml gentamicin (GIBCO). Cells in log phase growth were harvested, washed and resuspended in Tyrodes buffer containing 5 mM HEPES and 0.2% bovine serum albumin and were fixed with 1% buffered formalin.
Blood from normal human donors was anticoagulated with citrate, layered over 1-Step Platelets (Accurate Chemical Co.), and centrifuged at 350 g for 20 minutes at room temperature. The platelet band was collected, diluted in 2 volumes of Tyrode's Buffer with 5 mM HEPES, 10 mM EDTA, and 0.2% BSA (pH 7.4) (THEB) and centrifuged at 600 g for 10 minutes. The platelet pellet was resuspended in THEB and incubated at room temperature for 1 hour. Calcein-acetoxy methylester (Calcein-Am, Molecular Probes) was added to the platelets at a final concentration of 10 μM and incubated for 10 minutes at 37° C. to label the platelets. Without washing, the platelets were counted on a Coulter counter model ZM, and the concentration was adjusted to 1×10^7 /ml. The platelets were activated with 2 U/ml of human thrombin for 10 minutes in Tyrode's containing 2 mM CaCl2, 5 mM HEPES, and 0.2% BSA (pH 7.4) (THB) at 37° and immediately fixed with 1% buffered formalin for 1 to 2 hours at room temperature. A small aliquot of labeled platelets was removed before activation and designated as non-activated.
Both platelets and HL-60 were washed in a ≥5 fold excess volume of Hanks Balanced Salt Solution (HBSS), resuspended in THB and counted. Cell concentrations were adjusted to 2×10^7 /ml for platelets and 4×10^6 /ml for HL-60, this ratio determined to be optimum for platelet: HL-60 cell adhesion. Compounds were incubated with 50 μl of platelets for 30 minutes at room temperature before addition of 50 μl of HL-60. This ratio of 5:1 platelets to HL-60 was incubated for 30 minutes at room temperature before addition of 0.2 ml of THB to increase the volume so the samples could be analyzed on a FACScan cytometer (Becton Dickinson). Non-activated platelets, and activated platelets with 10 mM EDTA were included as controls. Data were collected within a region set for the forward scatter channel corresponding to HL-60 size events.
The percent HL-60 cells which contained bound platelets was determined for each test condition. The inhibition of binding was determined by comparison to standards which were treated with vehicle alone (representing 0% inhibition) and standards whose specific binding had been blocked by the use of EDTA (representing 100% inhibition), by the following formula: [formula] where x=HL-60 cells containing bound platelets in the presence of the compound;
b=HL-60 cells containing bound platelets in the presence of EDTA;
a=HL-60 cells containing bound platelets in presence of compound vehicle;
z=% inhibition of platelet: HL-60 cell adhesion
As for `CCCCCCCCCCCCC/C=C/[C@@H](OC(=O)c1ccccc1)[C@H](CO[C@H]1O[C@H](COCC(=O)O)[C@H](OCC(=O)O)[C@H](O)[C@H]1OC(=O)c1ccccc1)NC(=O)CCCCCCCCCCCCCCC` [Example 14, (2S,3R,4E)-3-Benzoyloxy-2-hexadecanoylamino-1-[2-O-benzoyl-4,6-di-O-carboxymethyl-α-D-galactopyranosyloxy]-4-octadecene], inhibition was half-maximal at 20 µM (IC50).

On to `CCCCCC/C=C/[C@@H](OC(=O)c1ccccc1)[C@H](CO[C@H]1O[C@H](COCC(=O)O)[C@H](OCC(=O)O)[C@H](OC(=O)c2ccccc2)[C@H]1OC(=O)c1ccccc1)NC(=O)CCCCCCCCC(=O)OC` [Example 8, (2S,3R,4E)-3-Benzoyloxy-2-(9-methoxycarbonyl-nonanoylamino)-1-(2,3-di-O-benzoyl-4,6-di-O-carboxymethyl-α-D-galactopyranosyloxy)-4-undecene], for which the IC50 is > 100 µM.

For `CCCCCCCCCCCCC/C=C/[C@@H](OC(=O)c1ccccc1)[C@H](CO[C@@H]1O[C@H](COCC(=O)O)[C@H](OCC(=O)O)[C@H](OC(=O)c2ccccc2)[C@H]1OC(=O)c1ccccc1)NC(=O)CCCCCCCCCCCCCCC` [Example 16, (2S,3R,4E)-2-Hexadecanoylamino-3-benzoyloxy-1-(4,6-di-O-carboxymethyl-2,3-di-O-benzoyl-β-D-galactopyranoside)-4-octadecene], the IC50 amounted to 10.1 µM.

`CCCCCCCCCCCCC/C=C/[C@@H](OC(=O)c1ccccc1)[C@H](CO[C@H]1O[C@H](COCC(=O)O)[C@H](OCC(=O)O)[C@H](OC(=O)c2ccccc2)[C@H]1OC(=O)c1ccccc1)NC(=O)CCCCCCCCCCCCCCC` [Example 2, (2S,3R,4E)-3-Benzoyloxy-2-hexadecanoylamino-1-[2,3-di-O-benzoyl-4,6-di-O-carboxymethyl-α-D-galactopyranosyloxy]-4-octadecene] showed an IC50 of 32 µM.

`CCCCCCCCCCCCC/C=C/[C@@H](OC(=O)c1ccccc1)[C@H](CO[C@@H]1O[C@H](COCC(=O)O)[C@H](OCC(=O)O)[C@H](OC(=O)c2ccccc2)[C@H]1O)NC(=O)CCCCCCCCCCCCCCC` [Example 18, (2S,3R,4E)-3-Benzoyloxy-2-hexadecanoylamino-1-[3-O-benzoyl-4,6-di-O-carboxymethyl-β-D-galactopyranosyloxy]-4-octadecene]: the IC50 amounted to 7 µM.
